Laboratory results published in patent US5464861A, “2-thioindoles (selenoindoles) and related disulfides (selenides) which inhibit protein tyrosine kinases and which have antitumor properties” (Warner-Lambert, priority 1993, dated 1995).
Read-outs that look alike come from different tables or passages of the source.

Key:
[1] = biological target: T1, human PDGF β receptor intracellular tyrosine kinase domain (Homo sapiens, UniProt P09619); assay: PDGF receptor tyrosine kinase inhibition assay (P^32 incorporation in Glu-Tyr); format: biochemical; conditions: read-out: % Inhibition at 100 μM (PDGFR TK)
T1 construct: human PDGF β receptor intracellular tyrosine kinase domain; made in house; host or cells: SF9 insect cells, recombinant baculovirus; cell lysates used
T1 sequence (P09619 554-1106 limits assumed): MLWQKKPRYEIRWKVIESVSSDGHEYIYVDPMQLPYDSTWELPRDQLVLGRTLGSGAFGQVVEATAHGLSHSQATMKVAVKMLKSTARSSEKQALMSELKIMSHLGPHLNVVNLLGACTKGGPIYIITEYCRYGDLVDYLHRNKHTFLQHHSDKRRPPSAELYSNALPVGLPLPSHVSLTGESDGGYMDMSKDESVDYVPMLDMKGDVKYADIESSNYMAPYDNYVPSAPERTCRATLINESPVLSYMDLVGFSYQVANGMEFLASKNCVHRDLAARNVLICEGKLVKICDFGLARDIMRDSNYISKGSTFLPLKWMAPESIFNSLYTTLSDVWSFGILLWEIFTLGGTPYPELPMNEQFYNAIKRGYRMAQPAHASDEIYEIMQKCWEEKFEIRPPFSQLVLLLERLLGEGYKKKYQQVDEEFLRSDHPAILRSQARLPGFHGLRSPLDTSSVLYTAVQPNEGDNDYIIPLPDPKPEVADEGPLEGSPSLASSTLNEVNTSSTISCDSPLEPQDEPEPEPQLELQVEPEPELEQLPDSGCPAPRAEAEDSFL
Experimental: Recombinant baculovirus containing human PDGF β receptor intracellular tyrosine kinase domain was used to infect SF9 cells to overexpress the protein, and cell lysates were used for the assay. The ability of the tyrosine kinase to phosphorylate glutamate tyrosine substrate in the presence of P^32 -ATP and inhibitor was measured by counting the incorporation of P^32 in Glu-Tyr in TCAprecipitable material.

[2] = biological target: T2, epidermal growth factor receptor tyrosine kinase (Homo sapiens, UniProt P00533); assay: EGF receptor tyrosine kinase assay (P^32 incorporation in GAT); format: biochemical; conditions: for inhibition at 100 µM: EGRF-R, read-out: % Inhibition at 100 μM (EGFR TK); for IC50: Table 2, EGRF-R, IC50 entries, read-out: IC50 (EGFR TK)
T2 construct: A native 170,000 epidermal growth factor receptor-kinase complex from shed plasma membrane vesicles; endogenous in cells
T2 sequence (P00533 25-1210): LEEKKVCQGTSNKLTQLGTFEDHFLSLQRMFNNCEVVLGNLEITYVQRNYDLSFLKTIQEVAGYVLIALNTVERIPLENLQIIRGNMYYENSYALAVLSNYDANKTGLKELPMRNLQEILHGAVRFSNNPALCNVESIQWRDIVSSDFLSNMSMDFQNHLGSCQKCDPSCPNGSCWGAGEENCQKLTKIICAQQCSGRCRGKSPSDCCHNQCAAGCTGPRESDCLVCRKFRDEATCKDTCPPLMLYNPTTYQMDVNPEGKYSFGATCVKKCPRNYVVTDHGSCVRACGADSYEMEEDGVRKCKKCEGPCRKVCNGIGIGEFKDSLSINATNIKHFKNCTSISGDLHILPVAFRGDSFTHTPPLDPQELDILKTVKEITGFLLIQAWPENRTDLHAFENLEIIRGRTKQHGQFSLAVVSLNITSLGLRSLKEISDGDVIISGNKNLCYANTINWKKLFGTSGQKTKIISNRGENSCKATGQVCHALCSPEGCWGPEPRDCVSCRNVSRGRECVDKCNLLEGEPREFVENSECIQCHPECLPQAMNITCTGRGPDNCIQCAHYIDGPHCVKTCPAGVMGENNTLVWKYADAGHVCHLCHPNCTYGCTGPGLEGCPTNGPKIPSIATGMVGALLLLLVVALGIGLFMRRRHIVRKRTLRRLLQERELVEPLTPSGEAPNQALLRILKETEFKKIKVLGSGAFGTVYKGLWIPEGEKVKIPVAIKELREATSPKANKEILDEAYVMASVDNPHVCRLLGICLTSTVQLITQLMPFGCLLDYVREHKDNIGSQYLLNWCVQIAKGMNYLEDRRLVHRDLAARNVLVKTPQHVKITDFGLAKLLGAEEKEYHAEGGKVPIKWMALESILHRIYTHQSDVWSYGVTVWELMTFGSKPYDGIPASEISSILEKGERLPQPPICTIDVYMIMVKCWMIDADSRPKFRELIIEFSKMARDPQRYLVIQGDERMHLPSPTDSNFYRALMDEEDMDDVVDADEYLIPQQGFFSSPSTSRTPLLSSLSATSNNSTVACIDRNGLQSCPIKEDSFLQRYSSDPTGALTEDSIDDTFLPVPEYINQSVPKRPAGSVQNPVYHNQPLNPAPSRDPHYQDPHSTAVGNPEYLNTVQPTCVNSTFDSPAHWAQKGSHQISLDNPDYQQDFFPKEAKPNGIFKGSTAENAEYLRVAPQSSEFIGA
T2 sequence (P01133 971-1023 partner limits assumed): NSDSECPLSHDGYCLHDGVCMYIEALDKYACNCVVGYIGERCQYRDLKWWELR
Experimental: At the time of assay, membranes were solubilized in 4% Triton X-100 and glycerol. The reaction is carried out in wells of a 96-well microtiter plate in a total volume of […]. Buffer containing 20 mMHepes (pH 7.4), 15 mMMgCl2, mM MnCl2, and 0.02% BSA followed by […] of membrane protein and 150 ng of epidermal growth factor. The plates are incubated for 10 minutes at room temperature to activate the receptor kinase. […] ATP plus or minus compound are added and incubated 10 minutes at room temperature.

| Compound | inhibition at 100 µM ([1]; at 100 μM, PDGF-R) | inhibition at 100 µM [2] | IC50 [2] | inhibition at 100 µM [1] |
| --- | --- | --- | --- | --- |
| O=C(NCc1ccccc1)C(Cc1c(SSc2[nH]c3ccccc3c2CC(NC(=O)C(F)(F)F)C(=O)NCc2ccccc2)[nH]c2ccccc12)NC(=O)C(F)(F)F (racemic) [Compound 61, 2,2'-dithiobis[N-benzyl-α-trifluoroacetylamino-3-(3-indolyl)propanamide]] | 11% | 37% | – | – |
| COC(=O)CC1C(=S)Nc2ccccc21 (centres unmarked) [Compound 3, methyl 2-(2-thioxo-3-indolinyl)acetate] | 8.6% | 43% | – | – |
| O=C(CC1C(=S)Nc2ccccc21)NCc1ccccc1 (centres unmarked) [Compound 6, N-benzyl (2-thioxo-3-indolinyl) acetamide] | 8.5% | – | 25 µM | – |
| COC(=O)CCCC1C(=S)N(C)c2ccccc21 (centres unmarked) [Compound 18, methyl 4-(1-methyl-2-thioxo-3-indolyl)butanoate] | 9% | 2% | – | – |
| COC(=O)c1ccc(C(=O)C2C(=S)N(C)c3ccccc32)cc1 (centres unmarked) [Compound 26, 3-(4'-carbomethoxybenzoyl) -1-methyl-2-indolinethione] | – | – | – | 5% |
| N#CCc1c(SSc2[nH]c3ccccc3c2CC#N)[nH]c2ccccc12 [Compound 35, 2,2'-dithiobis[3-indolylacetonitrile]] | 33.9% | – | 16.5 µM | – |
| NC(=O)CCc1c(SSc2[nH]c3ccccc3c2CCC(N)=O)[nH]c2ccccc12 [Compound 50] | 62.6% | – | 16 µM | – |
| CONC(=O)CCc1c(SSc2[nH]c3ccccc3c2CCC(=O)NOC)[nH]c2ccccc12 [Compound 52] | 18.3% | – | 68.2 µM | – |
| O=C(CCc1c(SSc2[nH]c3ccccc3c2CCC(=O)NCCc2ccccc2)[nH]c2ccccc12)NCCc1ccccc1 [Compound 54, 2,2'-dithiobis[N-(2-phenylethyl) -3-(3-indolyl)propanamide]] | 20.6% | – | 29 µM | – |
| O=C(CCc1c(SSc2[nH]c3ccccc3c2CCC(=O)NCc2ccc(C(=O)O)cc2)[nH]c2ccccc12)NCc1ccc(C(=O)O)cc1 [Compound 56, 2,2'-dithiobis[N-(4-carboxybenzyl)-3-(3-indolyl)propanamide]] | 44.5% | – | 7.3 µM | – |
| COC(=O)c1ccc(CNC(=O)CCc2c(SSc3[nH]c4ccccc4c3CCC(=O)NCc3ccc(C(=O)OC)c(O)c3)[nH]c3ccccc23)cc1O [Compound 57] | 14.5% | 46% | – | – |
| O=C(CCc1c(SSc2[nH]c3ccccc3c2CCC(=O)Nc2ccccc2)[nH]c2ccccc12)Nc1ccccc1 [Compound 59] | 11.4% | – | 30.5 µM | – |
| COC(=O)CCCc1c(SSc2[nH]c3ccccc3c2CCCC(=O)OC)[nH]c2ccccc12 [Compound 67, bis[methylindolyl-3-butanoate-(2)]-disulfide] | 2% | 18% | – | – |
| O=C(CCCc1c(SSc2[nH]c3ccccc3c2CCCC(=O)NCc2ccccc2)[nH]c2ccccc12)NCc1ccccc1 [Compound 69] | 8.9% | 55.6% | – | – |
| Cn1c(SSc2c(C(=O)Nc3ccccc3)c3c(Cl)cccc3n2C)c(C(=O)Nc2ccccc2)c2c(Cl)cccc21 [Compound 72, bis[N-phenyl 4-chloro-1-methylindolyl-3-carboxamide-(2)] disulfide] | 22% | 47% | – | – |
| Cc1ccc2c(C(=O)Nc3ccccc3)c(SSc3c(C(=O)Nc4ccccc4)c4ccc(C)cc4n3C)n(C)c2c1 [Compound 77, bis [N-phenyl 1,6-dimethylindolyl-3-carboxamide-(2)]disulfide] | 1% | 9% | – | – |
| Cn1c(SSc2c(C(=O)c3ccccc3)c3ccccc3n2C)c(C(=O)c2ccccc2)c2ccccc21 [Compound 100, bis[3-benzoyl-1-methylindole-(2)]disulfide] | – | – | – | 23% |
